Data: publication PMC5765510, “One pot synthesis of GDP‐mannose by a multi‐enzyme cascade for enzymatic assembly of lipid‐linked oligosaccharides” (Biotechnology and Bioengineering, 2017)

Assays:
Format in all cases: biochemical
1D-Ppk2 (His6-1D-Ppk2) = molecular target: T1, 1D-Ppk2 (His6-1D-Ppk2) (Pseudomonas aeruginosa, UniProt Q9I154); experiment: polyphosphate-dependent phosphorylation, HPAEC-UV; details: 4 mM PolyP14, 10 mM MgCl2, pH 7.5, 30 °C; reversible
T1 construct: gene PA2428; N-terminal His6 tag, codon-optimised synthetic gene, pET-28a(+), expressed in E. coli BL21-Gold(DE3), IMAC purified, 38 kDa
T1 sequence (Q9I154 1-304): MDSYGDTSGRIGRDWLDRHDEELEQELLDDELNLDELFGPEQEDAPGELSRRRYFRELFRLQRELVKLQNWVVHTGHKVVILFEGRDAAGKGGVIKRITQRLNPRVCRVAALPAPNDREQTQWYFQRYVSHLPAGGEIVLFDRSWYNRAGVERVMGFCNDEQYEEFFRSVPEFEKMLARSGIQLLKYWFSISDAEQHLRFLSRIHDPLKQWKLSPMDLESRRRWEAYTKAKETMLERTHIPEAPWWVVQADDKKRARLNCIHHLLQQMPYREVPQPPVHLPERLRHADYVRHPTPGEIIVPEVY

His6-Glk = molecular target: T2, His6-Glk (Escherichia coli, UniProt P0A6V8); experiment: man6P formation, HPAEC-UV/CD; details: 10 mM MgCl2, pH 7.5, 30 °C
T2 construct: N-terminal His6 tag, pET-28a(+), expressed in E. coli BL21-Gold(DE3), IMAC purified, 39 kDa
T2 sequence (P0A6V8 1-321): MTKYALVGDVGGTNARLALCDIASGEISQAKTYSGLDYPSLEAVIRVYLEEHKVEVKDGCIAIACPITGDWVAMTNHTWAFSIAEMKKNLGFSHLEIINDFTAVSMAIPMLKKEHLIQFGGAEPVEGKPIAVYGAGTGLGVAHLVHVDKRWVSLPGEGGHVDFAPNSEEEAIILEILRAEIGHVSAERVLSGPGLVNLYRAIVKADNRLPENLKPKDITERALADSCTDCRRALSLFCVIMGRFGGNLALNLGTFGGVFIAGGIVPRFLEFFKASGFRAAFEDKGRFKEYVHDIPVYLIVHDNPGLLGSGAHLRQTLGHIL

[1] = molecular target: T3, ManB-His6 (ManB-His6/ManC) (Escherichia coli, UniProt P24175); experiment: man1P/man6P equilibrium, HPAEC-CD; details: 1.8 mM, 0.25 mM glucose-1,6-bisphosphate, 10 mM MgCl2, pH 7.5, 30 °C
T3 construct: C-terminal His6 ManB co-expressed and co-purified with untagged ManC, E. coli BL21-Gold(DE3), 50 kDa; ManB/ManC ratio only estimated 1:1; with Mannose-1-phosphate guanylyltransferase
T3 sequence (P24174 whole entry): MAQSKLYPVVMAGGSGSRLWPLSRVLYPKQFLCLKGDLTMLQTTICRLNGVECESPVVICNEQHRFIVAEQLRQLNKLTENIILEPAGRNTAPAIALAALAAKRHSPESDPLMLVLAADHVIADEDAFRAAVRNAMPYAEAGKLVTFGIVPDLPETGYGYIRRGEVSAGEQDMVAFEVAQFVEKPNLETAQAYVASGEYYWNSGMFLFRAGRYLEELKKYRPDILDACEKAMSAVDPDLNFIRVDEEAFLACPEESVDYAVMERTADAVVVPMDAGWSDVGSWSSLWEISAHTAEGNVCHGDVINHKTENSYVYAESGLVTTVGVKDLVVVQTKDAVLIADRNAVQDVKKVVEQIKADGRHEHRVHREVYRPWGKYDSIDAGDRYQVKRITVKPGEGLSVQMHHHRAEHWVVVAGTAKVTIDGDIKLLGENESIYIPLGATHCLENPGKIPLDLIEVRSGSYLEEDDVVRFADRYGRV
T3 sequence (P24175 whole entry): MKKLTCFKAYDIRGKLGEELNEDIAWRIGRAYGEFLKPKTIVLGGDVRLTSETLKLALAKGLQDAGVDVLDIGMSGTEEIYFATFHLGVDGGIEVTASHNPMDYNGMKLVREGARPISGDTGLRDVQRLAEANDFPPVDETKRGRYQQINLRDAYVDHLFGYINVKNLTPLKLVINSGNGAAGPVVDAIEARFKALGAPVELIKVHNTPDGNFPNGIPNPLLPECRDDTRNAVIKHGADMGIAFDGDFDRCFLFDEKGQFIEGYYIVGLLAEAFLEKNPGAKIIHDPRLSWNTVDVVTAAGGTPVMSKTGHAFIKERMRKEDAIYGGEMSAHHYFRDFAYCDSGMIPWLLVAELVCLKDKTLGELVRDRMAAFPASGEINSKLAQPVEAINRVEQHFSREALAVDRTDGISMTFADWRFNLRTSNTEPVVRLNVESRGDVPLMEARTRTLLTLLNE

Nc1ncnc2c1ncn2[C@@H]1O[C@H](COP(=O)(O)OP(=O)(O)O)[C@@H](O)[C@H]1O [ADP]
polyphosphate-dependent phosphorylation, HPAEC-UV (1D-Ppk2 (His6-1D-Ppk2)): phosphorylation of ADP and GDP, respectively, by His6‐1D‐Ppk2 are equilibrium reactions

Nc1ncnc2c1ncn2[C@@H]1O[C@H](COP(=O)(O)OP(=O)(O)OP(=O)(O)O)[C@@H](O)[C@H]1O [ATP]
man6P formation, HPAEC-UV/CD (His6-Glk; mannose co-substrate): conversion of ATP and mannose to man6P and ADP is irreversible

Nc1nc2c(ncn2[C@@H]2O[C@H](COP(=O)(O)OP(=O)(O)O)[C@@H](O)[C@H]2O)c(=O)[nH]1 [GDP]
polyphosphate-dependent phosphorylation, HPAEC-UV (1D-Ppk2 (His6-1D-Ppk2)): phosphorylation of ADP and GDP, respectively, by His6‐1D‐Ppk2 are equilibrium reactions

O=P(O)(O)O[C@H]1O[C@H](CO)[C@@H](O)[C@H](O)[C@@H]1O [man1P]
man1P/man6P equilibrium, HPAEC-CD [1]: equilibrium conversion of man1P to man6P catalyzed by the ManB‐His6/ManC complex

OC[C@H]1OC(O)[C@@H](O)[C@@H](O)[C@@H]1O (some centres unmarked) [mannose]
man6P formation, HPAEC-UV/CD (His6-Glk; ATP 1.7 mM, irreversible): conversion of ATP and mannose to man6P and ADP is irreversible
